From patent publication US20250066411A1, “GL[…] FOR L-SIGN” (priority 2022, published 2025)

Experiments:
Format in all cases: binding
[1] = target: T1, L-SIGN ECD (Homo sapiens, UniProt Q9H2X3); experiment: SPR direct interaction experiments on oriented immobilized biotinylated ECD; settings: read-out: apparent Kd for L-SIGN; Steady State Affinity model, ligands 2 nM to 500 nM
T1 construct: towards the extra cellular domain (ECD) of the DC-SIGN and L-SIGN receptors
T1 sequence (Q9H2X3 71-399 limits assumed): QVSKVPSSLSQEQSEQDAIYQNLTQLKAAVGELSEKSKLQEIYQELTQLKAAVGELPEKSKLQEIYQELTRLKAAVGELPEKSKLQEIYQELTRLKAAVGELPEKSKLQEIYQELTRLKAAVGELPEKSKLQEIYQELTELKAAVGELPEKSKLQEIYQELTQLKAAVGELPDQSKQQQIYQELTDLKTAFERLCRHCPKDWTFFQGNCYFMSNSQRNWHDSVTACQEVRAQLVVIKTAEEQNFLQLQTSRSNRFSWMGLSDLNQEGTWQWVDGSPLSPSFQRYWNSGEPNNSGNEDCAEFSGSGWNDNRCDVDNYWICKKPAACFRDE
Protocol: For this experiment the extracellular domain (ECD) of DC-SIGN and L-SIGN were immobilized onto the SPR surface in an oriented manner, by their N-terminus, taking advantage of biotine/streptavidin interaction. To generate DC/L SIGN specifically biotinylated at the N-terminus, 3 glycine residues at the N-terminus of the protein were added by site directed mutagenesis in order to allow a sortaging procedure. The biotinylated versions of DC/L-SIGN ECDs (Biot-ECDs) were prepared by sortaging as described in Achilli, S., Monteiro, J. T., Serna, S., Mayer-Lambertz, S., Thépaut, M., Le Roy, A., Ebel, C., Reichardt, N.-C., Lepenies, B., Fieschi, F., and Vives, C. (2020) […], Artificial Tetrameric Lectins: A Tool to Screen Ligand and Pathogen Interactions. IJMS 21, 1-19 using a commercial synthetic biotinylated peptide,
To generate the oriented SPR surfaces, the flow cells were functionalized with Streptavidin in 10 mM Acetate buffer pH 4 and the remaining activated groups were blocked with 1 M ethanolamine pH 8. After blocking, the flow cells were treated with 100 μL of 10 mM HCl to remove non-specifically bound proteins and 100 μL of 50 mM NaOH/1M NaCl to expose surface to regeneration protocol. Priming of the surface was done using the running buffer (25 mM Tris pH 8, 150 mM NaCl, 4 mM CaCl2), 0.05% Tween). […] Surfaces are ready for interaction. […]

[2] = target: T1, L-SIGN ECD; experiment: SPR competition experiments on a sensorchip functionalized with SARS-CoV-2 Spike protein, L-SIGN ECD co-injected; settings: for IC50: 20 μM L-SIGN ECD co-injected, Spike HexaPro surface, 25° C., read-out: IC50 (inhibition of L-SIGN); for selectivity for L-SIGN over DC-SIGN: SPR competition, L-SIGN vs DC-SIGN ECD; for inhibits the L-SIGN receptor better than D-mannose: relative to D-mannose IC50
[3] = target: T1, L-SIGN ECD; experiment: Isothermal Titration Calorimetry (ITC) with L-SIGN ECD
Protocol: The interaction of compound 106a with the L-SIGN receptor was also confirmed by Isothermal Titration Calorimetry (ITC) experiments (FIG. 2).
These experiments were carried out on a MicroCal PEAQ-ITC apparatus, at 25° C., in buffer A (25 mM Tris pH 8, 150 mM NaCl, 4 mM CaCl2). L-SIGN ECD (172 μM) was titrated with consecutive 2 μL injections of a 2 mM solution of compound 106a in Calcium buffer (30 μL of 20 mM compound 106a+270 μL of Calcium buffer).
The analysis was performed in triplicate and the graphs shown in FIG. 2 (which report, respectively, Differential Power (DP) vs. time, and ΔH vs. molar ratio) are representative of the average of the three experiments.

Row | SMILES | IC50 [2] | selectivity for L-SIGN over DC-SIGN [2] | also measured
1 | N=C(N)NCc1cn(C2C(OCCn3cc(COCCOCCOCCn4cc(-c5cc(OCCOCCO)c(C#Cc6cc(OCCOCCO)c(C#Cc7cc(OCCOCCO)c(-c8cn(CCOCCOCCOCc9cn(CCOC%10OC(CO)C(O)C(O)C%10n%10cc(CNC(=N)N)nn%10)nn9)nn8)cc7OCCOCCO)cc6OCCOCCO)cc5OCCOCCO)nn4)nn3)OC(CO)C(O)C2O)nn1 (centres unmarked) [Compound 135] |  |  | Kd [1]: 0.025 µM
2 | COc1ccc2[nH]c(NCc3cn(C4C(O)[C@H](O)C(CO)O[C@@H]4OCCCl)nn3)nc2c1 (some centres unmarked) [Compound 146] | 52 µM |  | 
3 | N=C(N)NCc1cn(C2C(OCCn3cc(-c4cc(OCCOCCO)c(C#Cc5cc(OCCOCCO)c(C#Cc6cc(OCCOCCO)c(-c7cn(CCOC8OC(CO)C(O)C(O)C8n8cc(CNC(=N)N)nn8)nn7)cc6OCCOCCO)cc5OCCOCCO)cc4OCCOCCO)nn3)OC(CO)C(O)C2O)nn1 (centres unmarked) [Compound 133] |  |  | Kd [1]: 0.052 µM
4 | OCC1O[C@H](OCCCl)C(n2cc(CNc3nc4ccccc4[nH]3)nn2)C(O)[C@@H]1O (some centres unmarked) [Compound 113] | 48 µM | more selective against DC-SIGN | 
5 | OCC1O[C@H](OCCCl)C(n2cc(CNc3ncc[nH]3)nn2)C(O)[C@@H]1O (some centres unmarked) [Compound 115] | 15 µM | up to 75 fold | 
6 | OCC1O[C@H](OCCCl)C(n2cc(CNc3ncc[nH]3)nn2)C(O)[C@@H]1O (some centres unmarked) [Compound 119] | 18 µM |  | inhibits the L-SIGN receptor better than D-mannose [2]: over two orders of magnitude
7 | O=C[C@@H](O)[C@@H](O)[C@H](O)[C@H](O)CO [D-mannose, reference compound] | 1940 µM |  | 
8 | N=C(N)NCc1cn([C@H]2C(OCCCl)OC(CO)[C@@H](O)[C@@H]2O)nn1 (some centres unmarked) [Compound 106a] | 24 µM | up to 58 fold | Kd [3]: 12.8 ± 1.5 µM; enthalpy contribution (ΔH) of the interaction ([3]; ITC): very favorable; stoichiometry of interaction between ligand and L-SIGN receptor ([3]; ITC): 1,13; inhibits the L-SIGN receptor better than D-mannose [2]: 80 times; inhibits the L-SIGN receptor better than compound 103 ([2]; relative to compound 103 IC50): 11 times
9 | NCc1cn(C2C(OCCCl)OC(CO)C(O)C2O)nn1 (centres unmarked) [Compound 103, reference compound] | 278 µM |  | 
10 | OCC1O[C@H](OCCCl)C(n2cc(CNC3=NCCCN3)nn2)C(O)[C@@H]1O (some centres unmarked) [Compound 139] | 12 µM | up to 94 fold | 
